Measurements taken from US20060110456A1, “Method for biocidal and/or biostatic treatment and compositions therefor” (NATIONAL UNIVERSITY OF SINGAPORE, priority 2004, published 2006).

Key:
[1] = test system: Balanus amphitrite cyprids; conditions: reported value of commercially available biocide (Willemsen et al., 1998); cited from earlier work
[2] = test system: marine bacteria (26 strains); experiment: Disk inhibition assay; assay type: cell-based, marine bacteria isolated from Singapore fouling communities; conditions: for zone of inhibition at 5 µg/disc: 5 μg per disc; for zone of inhibition at 15 µg/disc: 15 μg per disc; for zone of inhibition at 10 µg/disc: 10 μg per disc; for zone of inhibition at 25 µg/disc: 25 μg per disc
Method: Preparation of Drugs onto Disks for Assay
The non-antibiotic pharmaceuticals of Table 1 were prepared in the following way. A tablet with a known amount of active ingredient (as stated in the product information) was ground in a mortar and pestle and suspended in sterile deionized water to a concentration of 2 mg ml^−1. These samples were sonicated for at least 1 min. […] The two halves of the capsule were separated and the powder released straight into a bottle and suitable amount of water added to make a concentration of 2 mg ml^−1.
As a comparison to the pharmaceuticals, to determine the susceptibility of the bacterial isolates to conventional antibiotics, commercially available antibiotic discs were used. Antibiotic discs (Oxoid® CT series) containing Ampicillin [Amp] (2 and 10 μg), Erythromycin [Ery] (5 and 15 μg), Streptomycin [Str] (10 and 25 μg) and Tetracycline [Tet] (5 and 30 μg) were placed on lawns of the bacterial strains inoculated as described below.
Sterile swabs dipped into the cultures were used to inoculate Marine Agar plates with a bacterial lawn by smearing the culture over the surface. After inoculating the plates, discs with antibiotics, pharmaceuticals or control blanks were placed on each plate. Each concentration of antibiotic or pharmaceutical was tested with three replicates on three separate occasions. After the disks were placed on the agar surface, plates were incubated overnight in the dark at 30° C. After incubation, plates were examined for zones of inhibition or clearing around control and treated disks. The diameter of any zone of clearing or inhibition was measured using Vernier calipers.
The assay was repeated three times with three replicates for each concentration used, each time.

In the case of `CCCCCCCCn1sc(Cl)c(Cl)c1=O` [Sea Nine], the ED50 [1] is given as 0.33 ppm.

With `CC[C@H]1OC(=O)[C@H](C)[C@@H](O[C@H]2C[C@@](C)(OC)[C@@H](O)[C@H](C)O2)[C@H](C)[C@@H](O[C@@H]2O[C@H](C)C[C@H](N(C)C)[C@H]2O)[C@](C)(O)C[C@@H](C)C(=O)[C@H](C)[C@@H](O)[C@]1(C)O` [Ery, erythromycin] the “Effectiveness of antibiotics against strains of marine bacteria” value ([2]; commercial antibiotic discs, in words) was “effective against most of the strains of marine bacteria”, the zone of inhibition at 5 µg/disc ([2]; strain 1 (Rhodovulum)) was < 6 mm and the zone of inhibition at 15 µg/disc ([2]; strain 1 (Rhodovulum)) was < 6 mm. The zone of inhibition at 5 µg/disc ([2]; strain 2 (Erythrobacter)) was < 6 mm, the zone of inhibition at 15 µg/disc ([2]; strain 2 (Erythrobacter)) was 20 to 29 mm and the zone of inhibition at 5 µg/disc ([2]; strain 3 (Erythrobacter)) was 10 to 19 mm. The zone of inhibition at 15 µg/disc ([2]; strain 3 (Erythrobacter)) was 20 to 29 mm, the zone of inhibition at 5 µg/disc ([2]; strain 4 (Bacillus)) was > 40 mm and the zone of inhibition at 15 µg/disc ([2]; strain 4 (Bacillus)) was 30 to 39 mm. The zone of inhibition at 5 µg/disc ([2]; strain 6 (Vibrio)) was < 6 mm, the zone of inhibition at 15 µg/disc ([2]; strain 6 (Vibrio)) was 10 to 19 mm and the zone of inhibition at 5 µg/disc ([2]; strain 7 (Vibrio)) was 10 to 19 mm. For the same compound, the zone of inhibition at 15 µg/disc ([2]; strain 7 (Vibrio)) was 10 to 19 mm, the zone of inhibition at 5 µg/disc ([2]; strain 8 (Bacillus)) was 20 to 29 mm and the zone of inhibition at 15 µg/disc ([2]; strain 8 (Bacillus)) was 30 to 39 mm. For the same compound, the zone of inhibition at 5 µg/disc ([2]; strain 9 (Bacillus)) was 30 to 39 mm, the zone of inhibition at 15 µg/disc ([2]; strain 9 (Bacillus)) was 30 to 39 mm and the zone of inhibition at 5 µg/disc ([2]; strain 10 (Halobacillus)) was 30 to 39 mm. The zone of inhibition at 15 µg/disc ([2]; strain 10 (Halobacillus)) was > 40 mm, the zone of inhibition at 5 µg/disc ([2]; strain 11 (Pseudomonas)) was 20 to 29 mm and the zone of inhibition at 15 µg/disc ([2]; strain 11 (Pseudomonas)) was 20 to 29 mm. For the same compound, the zone of inhibition at 5 µg/disc ([2]; strain 12 (Gordonia)) was < 6 mm, the zone of inhibition at 15 µg/disc ([2]; strain 12 (Gordonia)) was 10 to 19 mm and the zone of inhibition at 5 µg/disc ([2]; strain 13 (Bacillus)) was 20 to 29 mm. The zone of inhibition at 15 µg/disc ([2]; strain 13 (Bacillus)) was 20 to 29 mm, the zone of inhibition at 5 µg/disc ([2]; strain 14 (Vibrio)) was < 6 mm and the zone of inhibition at 15 µg/disc ([2]; strain 14 (Vibrio)) was 10 to 19 mm. For the same compound, the zone of inhibition at 5 µg/disc ([2]; strain 16 (Pseudoalteromonas)) was 10 to 19 mm, the zone of inhibition at 15 µg/disc ([2]; strain 16 (Pseudoalteromonas)) was 6 to 9 mm and the zone of inhibition at 5 µg/disc ([2]; strain 17 (Gordonia)) was > 40 mm. The zone of inhibition at 15 µg/disc ([2]; strain 17 (Gordonia)) was > 40 mm, the zone of inhibition at 5 µg/disc ([2]; strain 18 (Microbacterium)) was 6 to 9 mm and the zone of inhibition at 15 µg/disc ([2]; strain 18 (Microbacterium)) was 10 to 19 mm. The zone of inhibition at 5 µg/disc ([2]; strain 19 (Erythrobacter)) was 20 to 29 mm, the zone of inhibition at 15 µg/disc ([2]; strain 19 (Erythrobacter)) was 20 to 29 mm and the zone of inhibition at 5 µg/disc ([2]; strain 20) was 10 to 19 mm. For the same compound, the zone of inhibition at 15 µg/disc ([2]; strain 20) was 20 to 29 mm, the zone of inhibition at 5 µg/disc ([2]; strain 21) was 20 to 29 mm and the zone of inhibition at 15 µg/disc ([2]; strain 21) was 20 to 29 mm. For the same compound, the zone of inhibition at 5 µg/disc ([2]; strain 22) was 10 to 19 mm, the zone of inhibition at 15 µg/disc ([2]; strain 22) was 30 to 39 mm and the zone of inhibition at 5 µg/disc ([2]; strain 24) was 20 to 29 mm. It also gave a zone of inhibition at 15 µg/disc ([2]; strain 24) of 20 to 29 mm, a zone of inhibition at 5 µg/disc ([2]; strain 26) of 20 to 29 mm and a zone of inhibition at 15 µg/disc ([2]; strain 26) of 20 to 29 mm. It also gave a zone of inhibition at 5 µg/disc ([2]; strain 27) of 20 to 29 mm, a zone of inhibition at 15 µg/disc ([2]; strain 27) of 20 to 29 mm and a zone of inhibition at 5 µg/disc ([2]; strain 28) of 20 to 29 mm. It also gave a zone of inhibition at 15 µg/disc ([2]; strain 28) of 20 to 29 mm, a zone of inhibition at 5 µg/disc ([2]; strain 29) of 30 to 39 mm and a zone of inhibition at 15 µg/disc ([2]; strain 29) of 20 to 29 mm. It also gave a zone of inhibition at 5 µg/disc ([2]; strain 30) of 20 to 29 mm and a zone of inhibition at 15 µg/disc ([2]; strain 30) of 20 to 29 mm.

In the case of `[H]/N=C(/N)N[C@H]1[C@H](O)[C@@H](O)[C@H](O[C@@H]2O[C@@H](C)[C@](O)(C=O)[C@H]2O[C@@H]2O[C@@H](CO)[C@H](O)[C@@H](O)[C@@H]2NC)[C@@H](N/C(N)=N\[H])[C@@H]1O` [Str, streptomycin], the zone of inhibition at 10 µg/disc ([2]; strain 1 (Rhodovulum)) was 10 to 19 mm, the zone of inhibition at 25 µg/disc ([2]; strain 1 (Rhodovulum)) was 20 to 29 mm and the zone of inhibition at 10 µg/disc ([2]; strain 2 (Erythrobacter)) was < 6 mm. For the same compound, the zone of inhibition at 25 µg/disc ([2]; strain 2 (Erythrobacter)) was < 6 mm, the zone of inhibition at 10 µg/disc ([2]; strain 3 (Erythrobacter)) was < 6 mm and the zone of inhibition at 25 µg/disc ([2]; strain 3 (Erythrobacter)) was < 6 mm. The zone of inhibition at 10 µg/disc ([2]; strain 4 (Bacillus)) was 10 to 19 mm, the zone of inhibition at 25 µg/disc ([2]; strain 4 (Bacillus)) was 10 to 19 mm and the zone of inhibition at 10 µg/disc ([2]; strain 6 (Vibrio)) was < 6 mm. It also gave a zone of inhibition at 25 µg/disc ([2]; strain 6 (Vibrio)) of 10 to 19 mm, a zone of inhibition at 10 µg/disc ([2]; strain 7 (Vibrio)) of 10 to 19 mm and a zone of inhibition at 25 µg/disc ([2]; strain 7 (Vibrio)) of 10 to 19 mm. For the same compound, the zone of inhibition at 10 µg/disc ([2]; strain 8 (Bacillus)) was 10 to 19 mm, the zone of inhibition at 25 µg/disc ([2]; strain 8 (Bacillus)) was 10 to 19 mm and the zone of inhibition at 10 µg/disc ([2]; strain 9 (Bacillus)) was 10 to 19 mm. It also gave a zone of inhibition at 25 µg/disc ([2]; strain 9 (Bacillus)) of 10 to 19 mm, a zone of inhibition at 10 µg/disc ([2]; strain 10 (Halobacillus)) of 10 to 19 mm and a zone of inhibition at 25 µg/disc ([2]; strain 10 (Halobacillus)) of 10 to 19 mm. For the same compound, the zone of inhibition at 10 µg/disc ([2]; strain 11 (Pseudomonas)) was 10 to 19 mm, the zone of inhibition at 25 µg/disc ([2]; strain 11 (Pseudomonas)) was 20 to 29 mm and the zone of inhibition at 10 µg/disc ([2]; strain 12 (Gordonia)) was < 6 mm. It also gave a zone of inhibition at 25 µg/disc ([2]; strain 12 (Gordonia)) of 10 to 19 mm, a zone of inhibition at 10 µg/disc ([2]; strain 13 (Bacillus)) of 10 to 19 mm and a zone of inhibition at 25 µg/disc ([2]; strain 13 (Bacillus)) of 10 to 19 mm. The zone of inhibition at 10 µg/disc ([2]; strain 14 (Vibrio)) was < 6 mm, the zone of inhibition at 25 µg/disc ([2]; strain 14 (Vibrio)) was 6 to 9 mm and the zone of inhibition at 10 µg/disc ([2]; strain 16 (Pseudoalteromonas)) was 6 to 9 mm. The zone of inhibition at 25 µg/disc ([2]; strain 16 (Pseudoalteromonas)) was 10 to 19 mm, the zone of inhibition at 10 µg/disc ([2]; strain 17 (Gordonia)) was 10 to 19 mm and the zone of inhibition at 25 µg/disc ([2]; strain 17 (Gordonia)) was 10 to 19 mm. For the same compound, the zone of inhibition at 10 µg/disc ([2]; strain 18 (Microbacterium)) was 10 to 19 mm, the zone of inhibition at 25 µg/disc ([2]; strain 18 (Microbacterium)) was 10 to 19 mm and the zone of inhibition at 10 µg/disc ([2]; strain 19 (Erythrobacter)) was < 6 mm. For the same compound, the zone of inhibition at 25 µg/disc ([2]; strain 19 (Erythrobacter)) was < 6 mm, the zone of inhibition at 10 µg/disc ([2]; strain 20) was < 6 mm and the zone of inhibition at 25 µg/disc ([2]; strain 20) was < 6 mm. The zone of inhibition at 10 µg/disc ([2]; strain 21) was 10 to 19 mm, the zone of inhibition at 25 µg/disc ([2]; strain 21) was 10 to 19 mm and the zone of inhibition at 10 µg/disc ([2]; strain 22) was 6 to 9 mm. For the same compound, the zone of inhibition at 25 µg/disc ([2]; strain 22) was 20 to 29 mm, the zone of inhibition at 10 µg/disc ([2]; strain 24) was < 6 mm and the zone of inhibition at 25 µg/disc ([2]; strain 24) was 20 to 29 mm. For the same compound, the zone of inhibition at 10 µg/disc ([2]; strain 26) was < 6 mm, the zone of inhibition at 25 µg/disc ([2]; strain 26) was 20 to 29 mm and the zone of inhibition at 10 µg/disc ([2]; strain 27) was < 6 mm. For the same compound, the zone of inhibition at 25 µg/disc ([2]; strain 27) was < 6 mm, the zone of inhibition at 10 µg/disc ([2]; strain 28) was 10 to 19 mm and the zone of inhibition at 25 µg/disc ([2]; strain 28) was 10 to 19 mm. It also gave a zone of inhibition at 10 µg/disc ([2]; strain 29) of 10 to 19 mm, a zone of inhibition at 25 µg/disc ([2]; strain 29) of 10 to 19 mm and a zone of inhibition at 10 µg/disc ([2]; strain 30) of 10 to 19 mm. The zone of inhibition at 25 µg/disc ([2]; strain 30) was 10 to 19 mm.
